Results from patent US20060069132A1, “Azolecarboxamide herbicides” (priority 2004, published 2006).
Read-outs that look alike come from different tables or passages of the source.

How the values were obtained:
rice = test: Test B pre-/postemergence herbicide test; type: in vivo, Oryza sativa
Summary of the method: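 Response was scored visually 13 to 15 days after treatment against untreated greenhouse controls, 0 meaning no effect and 100 complete control. Formulations (solvent mixture plus surfactant) went onto soil after planting, onto foliage of 1- to 4-leaf plants, and onto 2-leaf plants in a flooded paddy set including rice and barnyardgrass.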

barnyardgrass = test: Test A pre-/postemergence herbicide test; type: in vivo, Echinochloa crus-galli; details: for pest or weed control at 500 g/ha / pest or weed control at 2000 g/ha: Echinochloa crus-galli, 240 h
Summary of the method: (§1)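 Pre: seeded sandy loam, directed soil spray, compound in non-phytotoxic solvent + surfactant. Post: 1–2-leaf plants (2–10 cm), sprayed to runoff. Greenhouse ~10 d; visual injury vs untreated, 0–100 scale.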

johnsongrass = test: Test C pre-/postemergence herbicide test; type: in vivo, Sorghum halepense
Summary of the method: (§2)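 Visual injury scores run from 0 (no effect) to 100 (complete control), assessed relative to untreated controls 12 to 14 days after treatment in the greenhouse. Chemicals were formulated in a non-phytotoxic solvent mixture with surfactant and applied to soil after planting or to emerged plants at the 1- to 4-leaf stage.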

corn = test: Test C pre-/postemergence herbicide test; type: in vivo, Zea mays
Summary of the method: as §2

velvetleaf = test: Test C pre-/postemergence herbicide test; type: in vivo, Abutilon theophrasti
Summary of the method: as §2

pigweed = test: Test C pre-/postemergence herbicide test; type: in vivo, Amaranthus retroflexus
Summary of the method: as §2

redroot pigweed = test: Test A pre-/postemergence herbicide test; type: in vivo, Amaranthus retroflexus; details: for pest or weed control at 500 g/ha / pest or weed control at 2000 g/ha: Amaranthus retroflexus, 240 h
Summary of the method: as §1

cocklebur = test: Test C pre-/postemergence herbicide test; type: in vivo, Xanthium strumarium
Summary of the method: as §2

[1] = Postemergence, 500 g ai/ha, 0 to 100 scale, 0 no effect, 100 complete control
[2] = Postemergence, 2000 g ai/ha, 0 to 100 scale, 0 no effect, 100 complete control
[3] = Preemergence, 500 g ai/ha, visual rating, 0 to 100 scale (0 no effect, 100 complete control)
[4] = Preemergence, 2000 g ai/ha, 0 to 100 scale, 0 no effect, 100 complete control
[5] = 31 g ai/ha, preemergence, scale 0 to 100
[6] = 125 g ai/ha, scale 0 (no effect) to 100 (complete control), visual, 12 to 14 days, preemergence
[7] = 250 g ai/ha, scale 0 to 100 (0 no effect, 100 complete control), visual, 12 to 14 days, preemergence
[8] = Preemergence, 2000 g ai/ha, visual rating, 0 to 100 scale (0 no effect, 100 complete control)
[9] = preemergence, 500 g ai/ha, visual injury, 0 to 100 scale (0 no effect, 100 complete control)
[10] = 62 g ai/ha, preemergence, scale 0 to 100
[11] = 250 g ai/ha, scale 0-100, preemergence
[12] = Preemergence, 500 g ai/ha, scale 0 to 100, 0 no effect, 100 complete control

Compound `CCc1nn(C(C)(C)C)cc1C(=O)Nc1cc(C(=O)N(C)C)ccc1F` [Compound 222, N-[5-[(dimethylamino)carbonyl]-2-fluorophenyl]-1-(1,1-dimethylethyl)-3-ethyl-1H-pyrazole-4-carboxamide] has a plant injury at 125 g/ha (rice; Oryza sativa, pre-emergence, 336 h, 125 g ai/ha, 0 = no effect, 100 = complete control, read-out: Rice plant response rating (0 to 100 scale)) of 90%, a plant injury at 500 g/ha (rice; Oryza sativa, pre-emergence, 336 h, 500 g ai/ha, visual rating, 0 = no effect, 100 = complete control, read-out: Plant response rating, Rice) of 100% and a pest or weed control at 500 g/ha (barnyardgrass; post-emergence, Postemergence, 500 g ai/ha, 0 to 100 scale, 0 no effect, 100 complete control, read-out: Barnyardgrass plant response rating) of 75%. The pest or weed control at 2000 g/ha (barnyardgrass; post-emergence, Postemergence, 2000 g ai/ha, 0 to 100 scale, 0 no effect, 100 complete control, read-out: Plant response rating, Barnyardgrass) was 90%, the pest or weed control at 2000 g/ha (barnyardgrass; pre-emergence, Preemergence, 2000 g ai/ha, visual rating, 0 to 100 scale (0 no effect, 100 complete control), read-out: Barnyardgrass plant response rating) was 100% and the pest or weed control at 500 g/ha (barnyardgrass; pre-emergence, preemergence, 500 g ai/ha, visual injury, 0 to 100 scale (0 no effect, 100 complete control), read-out: Barnyardgrass plant response rating) was 95%. The pest or weed control at 62 g/ha (johnsongrass; Sorghum halepense, pre-emergence, 62 g ai/ha, preemergence, scale 0 to 100, read-out: Plant response rating, Johnsongrass) was 85%, the pest or weed control at 125 g/ha (johnsongrass; Sorghum halepense, pre-emergence, 125 g ai/ha, scale 0 (no effect) to 100 (complete control), visual, 12 to 14 days, read-out: Plant response rating, Johnsongrass) was 100% and the pest or weed control at 250 g/ha (johnsongrass; Sorghum halepense, pre-emergence, 250 g ai/ha, scale 0-100, read-out: Plant response rating, Johnsongrass) was 100%. The pest or weed control at 500 g/ha (johnsongrass; Sorghum halepense, pre-emergence, 500 g ai/ha, scale 0 to 100 (0 no effect, 100 complete control), visual, 12 to 14 days, read-out: Plant response rating, Johnsongrass) was 100%, the Corn plant response rating (crop injury, 0 = no effect, 100 = complete kill) at 62 g/ha (corn; Zea mays, pre-emergence, 312 h, 62 g ai/ha, preemergence, scale 0 to 100) was 0% and the Corn plant response rating (crop injury, 0 = no effect, 100 = complete kill) at 125 g/ha (corn; Zea mays, pre-emergence, 312 h, 125 g ai/ha, scale 0 (no effect) to 100 (complete control), visual, 12 to 14 days) was 20%. It also gave a Corn plant response rating (crop injury, 0 = no effect, 100 = complete kill) at 250 g/ha (corn; Zea mays, pre-emergence, 312 h, 250 g ai/ha, scale 0-100) of 60%, a Corn plant response rating (crop injury, 0 = no effect, 100 = complete kill) at 500 g/ha (corn; Zea mays, pre-emergence, 312 h, 500 g ai/ha, scale 0 to 100 (0 no effect, 100 complete control), visual, 12 to 14 days) of 100% and a pest or weed control at 62 g/ha (velvetleaf; Abutilon theophrasti, pre-emergence, 62 g ai/ha, preemergence, scale 0 to 100, read-out: Plant response rating, Velvetleaf) of 50%. For the same compound, the pest or weed control at 250 g/ha (velvetleaf; Abutilon theophrasti, pre-emergence, 250 g ai/ha, scale 0-100, read-out: Plant response rating, Velvetleaf) was 100%, the pest or weed control at 500 g/ha (velvetleaf; Abutilon theophrasti, pre-emergence, 500 g ai/ha, scale 0 to 100 (0 no effect, 100 complete control), visual, 12 to 14 days, read-out: Plant response rating, Velvetleaf) was 100% and the pest or weed control at 62 g/ha (pigweed; Amaranthus retroflexus, pre-emergence, 62 g ai/ha, preemergence, scale 0 to 100, read-out: Plant response rating, Pigweed) was 100%. For the same compound, the pest or weed control at 125 g/ha (pigweed; Amaranthus retroflexus, pre-emergence, 125 g ai/ha, scale 0 (no effect) to 100 (complete control), visual, 12 to 14 days, read-out: Plant response rating, Pigweed) was 100%, the pest or weed control at 250 g/ha (pigweed; Amaranthus retroflexus, pre-emergence, 250 g ai/ha, scale 0-100, read-out: Plant response rating, Pigweed) was 100% and the pest or weed control at 500 g/ha (pigweed; Amaranthus retroflexus, pre-emergence, 500 g ai/ha, scale 0 to 100 (0 no effect, 100 complete control), visual, 12 to 14 days, read-out: Plant response rating, Pigweed) was 100%. The pest or weed control at 500 g/ha (redroot pigweed; post-emergence, Postemergence, 500 g ai/ha, 0 to 100 scale, 0 no effect, 100 complete control, read-out: Pigweed plant response rating) was 75%, the pest or weed control at 2000 g/ha (redroot pigweed; post-emergence, Postemergence, 2000 g ai/ha, 0 to 100 scale, 0 no effect, 100 complete control, read-out: Plant response rating, Pigweed) was 100% and the pest or weed control at 2000 g/ha (redroot pigweed; pre-emergence, Preemergence, 2000 g ai/ha, visual rating, 0 to 100 scale (0 no effect, 100 complete control), read-out: Pigweed plant response rating) was 90%. The pest or weed control at 500 g/ha (redroot pigweed; pre-emergence, preemergence, 500 g ai/ha, visual injury, 0 to 100 scale (0 no effect, 100 complete control), read-out: Pigweed plant response rating) was 90%, the pest or weed control at 62 g/ha (cocklebur; Xanthium strumarium, pre-emergence, 312 h, 62 g ai/ha, preemergence, scale 0 to 100, read-out: Plant response rating, Cocklebur) was 0% and the pest or weed control at 125 g/ha (cocklebur; Xanthium strumarium, pre-emergence, 312 h, 125 g ai/ha, scale 0 (no effect) to 100 (complete control), visual, 12 to 14 days, read-out: Plant response rating, Cocklebur) was 20%. The pest or weed control at 250 g/ha (cocklebur; Xanthium strumarium, pre-emergence, 312 h, 250 g ai/ha, scale 0-100, read-out: Plant response rating, Cocklebur) was 70% and the pest or weed control at 500 g/ha (cocklebur; Xanthium strumarium, pre-emergence, 312 h, Preemergence, 500 g ai/ha, scale 0 to 100, 0 no effect, 100 complete control, read-out: Cocklebur plant response rating) was 100%.
With `CCn1nc(C(C)(C)C)cc1C(=O)Nc1cccc(C(=O)NCC2CC2)c1` [Compound 62] the “Plant response rating, Rice” value (rice; preemergence, 125 g ai/ha, 0 to 100 scale, 0 is no effect, 100 is complete control) was 0, the “Plant response rating, Barnyardgrass” value (barnyardgrass; [1]) was 65 and the “Plant response rating, Barnyardgrass” value (barnyardgrass; [2]) was 100. The “Barnyardgrass plant response rating” value (barnyardgrass; [3]) was 50, the “Barnyardgrass plant response rating” value (barnyardgrass; [4]) was 95 and the “Plant response rating, Johnsongrass” value (johnsongrass; [5]) was 0. For the same compound, the “Plant response rating (0 = no effect, 100 = complete control), Johnsongrass” value (johnsongrass; 62 g ai/ha, preemergence) was 40, the “Plant response rating, Johnsongrass” value (johnsongrass; [6]) was 40 and the “Plant response rating, Johnsongrass” value (johnsongrass; [7]) was 70. The “Plant response rating, Corn” value (corn; [5]) was 0, the “Plant response rating (0 = no effect, 100 = complete control), Corn” value (corn; 62 g ai/ha, preemergence) was 0 and the “Plant response rating, Corn” value (corn; [6]) was 0. The “Plant response rating, Corn” value (corn; [7]) was 0, the “Plant response rating, Velvetleaf” value (velvetleaf; [5]) was 0 and the “Plant response rating, Velvetleaf” value (velvetleaf; [7]) was 70. For the same compound, the “Plant response rating, Pigweed” value (pigweed; [5]) was 90, the “Plant response rating (0 = no effect, 100 = complete control), Pigweed” value (pigweed; 62 g ai/ha, preemergence) was 95 and the “Plant response rating, Pigweed” value (pigweed; [6]) was 95. For the same compound, the “Plant response rating, Pigweed” value (pigweed; [7]) was 95, the “Plant response rating, Pigweed” value (redroot pigweed; [1]) was 100 and the “Plant response rating, Pigweed” value (redroot pigweed; [2]) was 100. For the same compound, the “Pigweed plant response rating” value (redroot pigweed; [3]) was 100, the “Pigweed plant response rating” value (redroot pigweed; [4]) was 100 and the “Plant response rating, Cocklebur” value (cocklebur; [5]) was 0. For the same compound, the “Plant response rating (0 = no effect, 100 = complete control), Cocklebur” value (cocklebur; 62 g ai/ha, preemergence) was 0, the “Plant response rating, Cocklebur” value (cocklebur; [6]) was 0 and the “Plant response rating, Cocklebur” value (cocklebur; [7]) was 0.
For `CCN(CC)C(=O)c1cccc(NC(=O)c2sc(C(C)(C)C)nc2C)c1` [Compound 199], the “Rice plant response rating (0 to 100 scale)” value (rice; 125 g ai/ha, 0 = no effect, 100 = complete control, preemergence) was 0, the “Plant response rating, Rice” value (rice; 500 g ai/ha, visual rating 0-100, 0 no effect, 100 complete control, preemergence) was 20 and the “Barnyardgrass plant response rating” value (barnyardgrass; [1]) was 10. The “Plant response rating, Barnyardgrass” value (barnyardgrass; [2]) was 80, the “Barnyardgrass plant response rating” value (barnyardgrass; [8]) was 95 and the “Barnyardgrass plant response rating” value (barnyardgrass; [9]) was 55. For the same compound, the “Plant response rating, Johnsongrass” value (johnsongrass; [10]) was 0, the “Plant response rating, Johnsongrass” value (johnsongrass; [6]) was 30 and the “Plant response rating, Johnsongrass” value (johnsongrass; [11]) was 60. The “Johnsongrass plant response rating” value (johnsongrass; [12]) was 90, the “Plant response rating, Corn” value (corn; [10]) was 0 and the “Plant response rating, Corn” value (corn; [6]) was 0. The “Plant response rating, Corn” value (corn; [11]) was 0, the “Corn plant response rating” value (corn; [12]) was 0 and the “Plant response rating, Velvetleaf” value (velvetleaf; [10]) was 10. For the same compound, the “Plant response rating, Velvetleaf” value (velvetleaf; [6]) was 70, the “Plant response rating, Velvetleaf” value (velvetleaf; [11]) was 85 and the “Velvetleaf plant response rating” value (velvetleaf; [12]) was 85. For the same compound, the “Plant response rating, Pigweed” value (pigweed; [10]) was 100, the “Plant response rating, Pigweed” value (pigweed; [6]) was 100 and the “Plant response rating, Pigweed” value (pigweed; [11]) was 100. For the same compound, the “Pigweed plant response rating” value (pigweed; [12]) was 100, the “Pigweed plant response rating” value (redroot pigweed; [1]) was 80 and the “Plant response rating, Pigweed” value (redroot pigweed; [2]) was 80. For the same compound, the “Pigweed plant response rating” value (redroot pigweed; [8]) was 100, the “Pigweed plant response rating” value (redroot pigweed; [9]) was 100 and the “Plant response rating, Cocklebur” value (cocklebur; [10]) was 0. The “Plant response rating, Cocklebur” value (cocklebur; [6]) was 0, the “Plant response rating, Cocklebur” value (cocklebur; [11]) was 0 and the “Cocklebur plant response rating” value (cocklebur; [12]) was 0.
